According to the PolyMetriX glass transition set:
± gives the standard deviation of the reports.

SMILES | glass transition temperature
*c1ccc(C(=O)c2ccc(Oc3ccc(-c4nn(*)c(=O)c5ccccc45)cc3)cc2)cc1 (repeat unit) | 263.00 °C
*CC(*)(C)C(=O)O (repeat unit) | 161.70 °C
*CCCCCOC(=O)c1cccc(C(=O)O*)c1 (repeat unit) | 7.00 °C
*OC1C(COCC)OC(*)C(OCC)C1OCC (repeat unit) | 131.2 °C
*Oc1ccc2c(c1)C(C)(c1ccc(OC(*)=O)cc1)CC2(C)C (repeat unit) | 201.70 °C
*Nc1ccc(Cc2ccc(NC(=O)c3cc(NC(=O)CCN4C(=O)c5ccccc5C4=O)cc(C(*)=O)c3)cc2)cc1 (repeat unit) | 235.00 °C
*c1cccc(Oc2cccc(Oc3cccc(N4C(=O)c5ccc(Oc6ccc7c(c6)C(=O)N(*)C7=O)cc5C4=O)c3)c2C#N)c1 (repeat unit) | 219.00 °C
*/C=C/c1ccc(/C=C/c2ccc3c(c2)Sc2cc(*)ccc2N3c2ccc(OCCCCCCCCCCCC)cc2)cc1 (repeat unit) | 167.00 °C
*Oc1ccc(-c2ccc(Oc3ccc(C(=O)c4ccc(*)cc4)cc3)cc2)cc1 (repeat unit) | 167.00 °C
*CCCCCCCCNC(=O)CCCCCCCCCCCCCCCCCCCCC(=O)N* (repeat unit) | 48.00 °C
*Oc1ccc(/N=C/CCC/C=N/c2ccc(OC(=O)Nc3ccc(Cc4ccc(NC(*)=O)cc4)cc3)cc2)cc1 (repeat unit) | 76.00 °C
*/C(=C/c1ccc(/C=C(\c2ccccc2)c2ccc(-c3ccc(*)cc3)cc2)cc1)c1ccccc1 (repeat unit) | 220.00 °C
*O[Si](*)(C)CCc1cc(C(=O)Oc2ccc(OCCCCCCCCCCCC)cc2)ccc1-c1ccc(C(=O)Oc2ccc(OCCCCCCCCCCCC)cc2)cc1 (repeat unit) | 76.00 °C
*c1ccc2c(c1)C(=O)N(c1ccc(C(=O)Nc3ccc(Oc4cccc(Oc5ccc(NC(=O)c6ccc(N7C(=O)c8ccc(C(*)(C(F)(F)F)C(F)(F)F)cc8C7=O)cc6)cc5)c4)cc3)cc1)C2=O (repeat unit) | 286.00 °C
*CC(*)OC(=O)OCC(F)(F)F (repeat unit) | 57.00 °C
*C(=O)c1ccc(N(*)CCCCC)cc1 (repeat unit) | 83.50 °C
*Oc1ccc(CC(NC(=O)CCc2ccc(OC(=O)CCCCC(*)=O)cc2)C(=O)OCCOCCOCC)cc1 (repeat unit) | 15.00 °C
*c1ccc(Oc2ccccc2Oc2ccc(-n3c(=O)c4cc5c(=O)n(*)c(=O)c5cc4c3=O)cc2C(F)(F)F)c(C(F)(F)F)c1 (repeat unit) | 277.00 °C
*CC(O)CN(*)c1cc(C)cc(C)c1 (repeat unit) | 80.00 °C
*CC(C)(C)C1C(=O)OC(=O)C1* (repeat unit) | 141.00 °C
*Oc1ccc(CC(NC(=O)CCc2ccc(OC(=O)CCCCCCCCC(*)=O)cc2)C(=O)OC(C)CC)cc1 (repeat unit) | 36.00 °C
*CC(=O)Nc1ccc(NC(=O)CN2C(=O)c3ccc(C(=O)c4ccc5c(c4)C(=O)N(*)C5=O)cc3C2=O)cc1 (repeat unit) | 250.00 °C
*C(=O)Nc1ccc(S(=O)(=O)c2ccc(NC(=O)c3ccc4c(c3)C(=O)N(c3cc(-c5nc6ccccc6o5)cc(N5C(=O)c6ccc(*)cc6C5=O)c3)C4=O)cc2)cc1 (repeat unit) | 367.00 °C
*c1ccc(Oc2ccc3c(c2)C(=O)N(*)C3=O)cc1 (repeat unit) | 266.00 °C

SMILES | glass transition temperature
*CC(C)COC(=O)c1ccc(C(=O)O*)cc1 (repeat unit) | 55.00 °C
*c1ccc(Oc2ccc(Oc3ccc(-n4c(=O)c5cc6c(=O)n(*)c(=O)c6cc5c4=O)cc3)cc2C(C)(C)C)cc1 (repeat unit) | 314.00 °C
*C(=O)Nc1ccc(NC(=O)c2ccc3c(c2)C(=O)N(c2c(C)cc(C)c(N4C(=O)c5ccc(*)cc5C4=O)c2C)C3=O)cc1 (repeat unit) | 327.00 °C
*Oc1ccc(Sc2ccc(Oc3ccc4c(=O)n5c6cc(-c7ccc8c(c7)nc7c9ccc(*)c%10cccc(c(=O)n87)c%109)ccc6nc5c5cccc3c45)cc2)cc1 (repeat unit) | 386.00 °C
*c1ccc2oc(-c3cc(OCCCCCCCCCC)c(-c4nc5cc(C(*)(C(F)(F)F)C(F)(F)F)ccc5o4)cc3OCCCCCCCCCC)nc2c1 (repeat unit) | 94.00 °C
*c1ccc2c(c1)C(=O)N(c1ccc(Oc3ccc(-c4ccc(Oc5ccc(N6C(=O)c7ccc(C(*)(C(F)(F)F)C(F)(F)F)cc7C6=O)cc5)cc4)cc3)cc1)C2=O (repeat unit) | 288.00 °C
*Oc1ccc(C2(c3ccc(Oc4ccc(C(=O)C(=O)c5ccc(*)cc5)cc4)cc3)c3ccccc3-c3ccccc32)cc1 (repeat unit) | 242.00 °C
*O[Si](*)(C)C (repeat unit) [Poly(dimethylsiloxane)] | -124 ± 2 °C
*CCCCCC(=O)S* (repeat unit) | 19.00 °C
*Oc1ccc(Oc2cccc(C(=O)Oc3ccc(OC(=O)c4cccc(*)c4)cc3)c2)cc1 (repeat unit) | 119.00 °C
*c1nc(C)nc(N(CCCCCCCCCCN(*)c2ccccc2)c2ccccc2)n1 (repeat unit) | 48.00 °C
*CCC[Si](*)(C)C[Si](C)(C)C (repeat unit) | -51.00 °C
*c1ccc(Oc2ccc(-c3ccc(Oc4ccc(N5C(=O)c6ccc(Oc7ccc(C8(c9ccc(Oc%10ccc%11c(c%10)C(=O)N(*)C%11=O)cc9)CCC(C(C)(C)C)CC8)cc7)cc6C5=O)cc4)cc3C)c(C)c2)cc1 (repeat unit) | 236.00 °C
*C(=O)Nc1ccc(Oc2ccc(Oc3ccc(NC(=O)c4ccc5c(c4)C(=O)N(c4ccc(Oc6ccc(N7C(=O)c8ccc(*)cc8C7=O)cc6)cc4)C5=O)cc3)cc2)cc1 (repeat unit) | 260.00 °C
*c1cccc(OCCCCCOc2cccc(N3C(=O)c4ccc(-c5ccc6c(c5)C(=O)N(*)C6=O)cc4C3=O)c2)c1 (repeat unit) | 165.00 °C
*CCCCCCCCCCCOc1ccc(CCc2ccc(O*)cc2C)cc1 (repeat unit) | 3.90 °C
*Oc1ccc(C(C)(C)c2ccc(Oc3c(F)c(F)c(COC(c4cccc(C(OCc5c(F)c(F)c(*)c(F)c5F)(C(F)(F)F)C(F)(F)F)c4)(C(F)(F)F)C(F)(F)F)c(F)c3F)cc2)cc1 (repeat unit) | 98.00 °C
*NC1CCC(CC2CCC(NC(=O)CCCCC(*)=O)CC2)CC1 (repeat unit) | 185.00 °C
*CC(*)(C)C(=O)OC12CC3CC(CC(C3)C1)C2 (repeat unit) | 183.00 °C
*CCCCCCOC(=O)NCCCCNC(=O)O* (repeat unit) | 16.00 °C
*CCCCCCOc1ccc(/C=C2\CCC/C(=C\c3ccc(O*)cc3)C2=O)cc1 (repeat unit) | 116.00 °C
*CC(*)C(=O)NCCC[N+](C)(C)C (repeat unit) | 57.00 °C
*Oc1cccc2ccc(Oc3ccc(NC(=O)c4ccc(C(c5ccc(C(=O)Nc6ccc(*)cc6)cc5)(C(F)(F)F)C(F)(F)F)cc4)cc3)cc12 (repeat unit) | 252.00 °C
*CCOCCOC(=O)C(=O)O* (repeat unit) | -28.00 °C
